# According to ChEMBL document CHEMBL5291721, “A preclinical secondary pharmacology resource illuminates target-adverse drug reaction associations of marketed drugs” (Nat Commun, 2023):
# Columns and labels:
# [1] = target: T1, Amine oxidase [flavin-containing] A (Homo sapiens, UniProt P21397); assay type: functional
# T1 sequence (P21397 whole entry): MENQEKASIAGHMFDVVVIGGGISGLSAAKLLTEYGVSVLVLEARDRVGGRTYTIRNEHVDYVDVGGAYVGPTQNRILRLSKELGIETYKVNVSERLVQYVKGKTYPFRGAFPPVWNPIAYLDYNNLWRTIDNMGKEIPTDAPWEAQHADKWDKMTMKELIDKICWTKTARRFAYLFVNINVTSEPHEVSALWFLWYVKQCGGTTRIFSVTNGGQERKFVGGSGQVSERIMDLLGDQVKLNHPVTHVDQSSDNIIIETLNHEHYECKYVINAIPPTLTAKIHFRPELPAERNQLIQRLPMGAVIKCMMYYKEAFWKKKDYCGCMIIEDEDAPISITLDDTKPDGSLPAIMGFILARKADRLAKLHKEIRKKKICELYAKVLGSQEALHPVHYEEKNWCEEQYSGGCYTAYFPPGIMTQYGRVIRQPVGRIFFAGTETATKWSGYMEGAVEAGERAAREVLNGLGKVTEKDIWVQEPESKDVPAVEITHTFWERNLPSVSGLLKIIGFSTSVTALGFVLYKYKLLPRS
# [2] = target: Kappa-type opioid receptor (Homo sapiens, UniProt P41145)
# Histamine H1 receptor = Histamine H1 receptor (Homo sapiens, UniProt P35367)
# [3] = target: T2, Alpha-1A adrenergic receptor (Homo sapiens, UniProt P35348); assay type: functional, cell-based
# T2 sequence (P35348 whole entry): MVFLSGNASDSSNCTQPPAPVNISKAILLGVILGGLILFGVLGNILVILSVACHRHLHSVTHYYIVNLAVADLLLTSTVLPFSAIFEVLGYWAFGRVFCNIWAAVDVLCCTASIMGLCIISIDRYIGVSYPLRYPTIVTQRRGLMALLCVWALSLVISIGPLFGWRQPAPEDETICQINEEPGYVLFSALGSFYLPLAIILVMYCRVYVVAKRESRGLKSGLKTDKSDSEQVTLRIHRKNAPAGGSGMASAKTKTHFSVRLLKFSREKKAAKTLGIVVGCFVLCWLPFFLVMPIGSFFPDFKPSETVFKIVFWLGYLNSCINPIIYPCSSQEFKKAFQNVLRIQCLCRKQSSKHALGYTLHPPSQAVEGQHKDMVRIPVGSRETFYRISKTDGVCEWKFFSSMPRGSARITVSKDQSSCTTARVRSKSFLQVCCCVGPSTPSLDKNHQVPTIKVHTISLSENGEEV
# [4] = target: Gamma-aminobutyric acid receptor subunit alpha-1 (Rattus norvegicus, UniProt P62813); assay type: functional
# [5] = target: T3, Cholecystokinin receptor type A (Homo sapiens, UniProt P32238)
# T3 sequence (P32238 whole entry): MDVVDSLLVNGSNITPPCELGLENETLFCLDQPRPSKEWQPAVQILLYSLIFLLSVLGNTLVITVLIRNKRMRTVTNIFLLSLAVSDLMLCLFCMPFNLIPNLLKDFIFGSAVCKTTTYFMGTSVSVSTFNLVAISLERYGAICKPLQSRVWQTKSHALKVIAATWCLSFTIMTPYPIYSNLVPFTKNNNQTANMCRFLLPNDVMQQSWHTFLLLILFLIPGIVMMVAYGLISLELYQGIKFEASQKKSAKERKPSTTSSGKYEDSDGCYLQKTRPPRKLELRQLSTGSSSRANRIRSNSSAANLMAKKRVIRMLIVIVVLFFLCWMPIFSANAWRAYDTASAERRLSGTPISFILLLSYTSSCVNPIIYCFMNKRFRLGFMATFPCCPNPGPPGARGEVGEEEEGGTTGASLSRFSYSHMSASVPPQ
# [6] = target: T4, Muscarinic acetylcholine receptor M2 (Homo sapiens, UniProt P08172); assay type: functional, cell-based
# T4 sequence (P08172 whole entry): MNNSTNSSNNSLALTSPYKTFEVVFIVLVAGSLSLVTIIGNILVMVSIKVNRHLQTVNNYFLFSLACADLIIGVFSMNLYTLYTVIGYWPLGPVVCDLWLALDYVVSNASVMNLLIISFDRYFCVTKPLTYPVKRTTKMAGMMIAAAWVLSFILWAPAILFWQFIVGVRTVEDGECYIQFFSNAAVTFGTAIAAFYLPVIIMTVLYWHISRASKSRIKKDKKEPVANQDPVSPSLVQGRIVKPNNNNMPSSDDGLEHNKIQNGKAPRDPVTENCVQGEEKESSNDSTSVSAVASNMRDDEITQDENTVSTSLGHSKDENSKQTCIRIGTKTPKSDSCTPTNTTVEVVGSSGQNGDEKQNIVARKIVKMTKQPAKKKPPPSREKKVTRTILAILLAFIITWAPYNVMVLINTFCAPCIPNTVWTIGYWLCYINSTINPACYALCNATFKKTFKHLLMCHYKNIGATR
# Vasopressin V2 receptor = Vasopressin V2 receptor (Homo sapiens, UniProt P30518)
# Thromboxane A2 receptor = target: T5, Thromboxane A2 receptor (Homo sapiens, UniProt P21731)
# T5 sequence (P21731 whole entry): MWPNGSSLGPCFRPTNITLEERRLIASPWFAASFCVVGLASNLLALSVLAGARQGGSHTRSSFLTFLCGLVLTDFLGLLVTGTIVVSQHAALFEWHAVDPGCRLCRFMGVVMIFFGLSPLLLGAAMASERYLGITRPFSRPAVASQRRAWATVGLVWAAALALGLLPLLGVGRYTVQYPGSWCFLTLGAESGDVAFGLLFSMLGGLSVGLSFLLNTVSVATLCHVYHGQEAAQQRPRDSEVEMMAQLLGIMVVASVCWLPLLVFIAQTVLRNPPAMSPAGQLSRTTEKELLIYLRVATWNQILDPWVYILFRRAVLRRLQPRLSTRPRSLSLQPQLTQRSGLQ
# Further: assay procedure not described here.
# Gamma-aminobutyric acid receptor subunit alpha-1, sequence (P62813 whole entry): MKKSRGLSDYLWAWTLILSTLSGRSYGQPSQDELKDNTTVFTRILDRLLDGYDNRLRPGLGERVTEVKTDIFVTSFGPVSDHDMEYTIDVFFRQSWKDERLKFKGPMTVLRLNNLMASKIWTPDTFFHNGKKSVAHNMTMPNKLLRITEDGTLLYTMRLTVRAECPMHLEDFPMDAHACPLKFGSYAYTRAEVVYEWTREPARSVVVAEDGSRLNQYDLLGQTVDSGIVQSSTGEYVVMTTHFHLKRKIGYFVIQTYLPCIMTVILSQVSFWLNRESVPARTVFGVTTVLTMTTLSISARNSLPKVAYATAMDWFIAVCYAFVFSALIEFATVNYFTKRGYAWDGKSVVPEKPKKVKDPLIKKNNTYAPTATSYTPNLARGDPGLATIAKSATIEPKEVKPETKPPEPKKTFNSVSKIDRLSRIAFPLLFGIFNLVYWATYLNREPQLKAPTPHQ
# Histamine H1 receptor, sequence (P35367 whole entry): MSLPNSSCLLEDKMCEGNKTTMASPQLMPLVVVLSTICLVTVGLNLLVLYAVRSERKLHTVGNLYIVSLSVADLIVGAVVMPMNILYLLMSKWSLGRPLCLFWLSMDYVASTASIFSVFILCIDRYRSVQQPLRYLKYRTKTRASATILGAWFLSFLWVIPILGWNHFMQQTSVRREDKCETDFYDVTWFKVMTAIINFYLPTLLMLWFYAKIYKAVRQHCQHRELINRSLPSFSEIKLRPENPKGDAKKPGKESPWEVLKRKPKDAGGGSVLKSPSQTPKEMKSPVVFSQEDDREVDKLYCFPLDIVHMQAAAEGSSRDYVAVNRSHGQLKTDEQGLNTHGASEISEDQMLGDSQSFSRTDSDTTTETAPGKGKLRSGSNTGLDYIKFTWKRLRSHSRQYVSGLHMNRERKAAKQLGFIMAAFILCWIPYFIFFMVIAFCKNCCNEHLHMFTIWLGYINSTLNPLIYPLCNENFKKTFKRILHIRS
# Vasopressin V2 receptor, sequence (P30518 whole entry): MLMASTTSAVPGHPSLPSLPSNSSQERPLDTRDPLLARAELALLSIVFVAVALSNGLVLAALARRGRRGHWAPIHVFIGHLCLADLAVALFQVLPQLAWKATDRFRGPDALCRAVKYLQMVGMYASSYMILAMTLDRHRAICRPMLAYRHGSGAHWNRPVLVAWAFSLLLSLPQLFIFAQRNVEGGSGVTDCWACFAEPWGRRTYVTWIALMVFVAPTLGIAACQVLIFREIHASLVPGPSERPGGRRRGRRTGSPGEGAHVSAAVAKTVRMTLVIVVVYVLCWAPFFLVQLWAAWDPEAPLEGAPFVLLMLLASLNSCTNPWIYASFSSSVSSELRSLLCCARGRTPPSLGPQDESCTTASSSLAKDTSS
# Kappa-type opioid receptor, sequence (P41145 whole entry): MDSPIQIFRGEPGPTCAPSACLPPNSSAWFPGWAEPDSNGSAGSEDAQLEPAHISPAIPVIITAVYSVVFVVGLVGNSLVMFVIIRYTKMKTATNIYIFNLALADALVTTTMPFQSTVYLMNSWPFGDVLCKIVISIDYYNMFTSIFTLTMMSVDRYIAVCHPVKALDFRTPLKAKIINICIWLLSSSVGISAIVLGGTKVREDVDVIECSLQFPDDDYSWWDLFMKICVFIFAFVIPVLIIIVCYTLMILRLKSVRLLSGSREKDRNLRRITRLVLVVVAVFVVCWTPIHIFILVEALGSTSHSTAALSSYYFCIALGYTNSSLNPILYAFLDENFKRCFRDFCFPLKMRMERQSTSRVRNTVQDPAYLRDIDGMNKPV
Compound,AC50 [1],AC50 [2],AC50 (Histamine H1 receptor),AC50 [3],AC50 [4],AC50 [5],AC50 [6],AC50 (Vasopressin V2 receptor),AC50 (Thromboxane A2 receptor)
COLISTIN,> 30 µM,> 30 µM,> 30 µM,> 30 µM,> 30 µM,,,,
CCN(CC)CCOC(=O)c1ccc(N)cc1Cl [CHLOROPROCAINE],7.9 µM,> 30 µM,> 30 µM,> 30 µM,> 30 µM,> 30 µM,29 µM,> 30 µM,
CN1c2ccccc2C(NCCCCCCC(=O)O)c2ccc(Cl)cc2S1(=O)=O (configuration not stated) [TIANEPTINE],> 30 µM,> 30 µM,> 30 µM,,> 30 µM,> 30 µM,> 30 µM,> 30 µM,> 30 µM
COC(=O)N[C@@H](C)CNc1nccc(-c2cn(C(C)C)nc2-c2cc(Cl)cc(NS(C)(=O)=O)c2F)n1 [ENCORAFENIB],> 30 µM,13.7 µM,> 30 µM,,23.1 µM,> 30 µM,> 30 µM,> 30 µM,> 30 µM
COc1cc2nccc(Oc3ccc(NC(=O)Nc4cc(C)on4)c(Cl)c3)c2cc1OC [TIVOZANIB],> 30 µM,,> 30 µM,19 µM,,,> 30 µM,,> 3 µM
CCCC[C@H](C)C[C@H](O)/C=C/[C@H]1[C@H](O)CC(=O)[C@@H]1CCCC/C=C/C(=O)O [LIMAPROST],> 30 µM,> 30 µM,> 30 µM,> 30 µM,,> 30 µM,> 30 µM,> 30 µM,
CCOC(=O)Nc1ccc2c(c1)N(C(=O)CCN1CCOCC1)c1ccccc1S2 [MORICIZINE],> 30 µM,> 30 µM,> 30 µM,,> 30 µM,> 30 µM,> 30 µM,> 30 µM,
CCCCC1(CC)C(=O)NC(=O)NC1=O [BUTETHAL],> 30 µM,> 30 µM,> 30 µM,> 30 µM,> 30 µM,> 30 µM,> 30 µM,> 30 µM,
CC(=O)O[C@H]1C[C@@H]2CC[C@@H]3[C@H](CC[C@@]4(C)[C@H]3C[C@H]([N+]3(C)CCCCC3)[C@@H]4OC(C)=O)[C@@]2(C)C[C@@H]1[N+]1(C)CCCCC1 [PANCURONIUM],> 10 µM,> 10 µM,> 10 µM,,> 10 µM,> 10 µM,> 10 µM,> 10 µM,> 10 µM
CC(CCc1ccccc1)NC(C)C(O)c1ccc(O)cc1 (configuration not stated) [NYLIDRIN],> 10 µM,4.98 µM,> 10 µM,,> 10 µM,> 30 µM,> 10 µM,> 30 µM,> 30 µM
Cc1ccc(NC(=O)C2(c3ccc4c(c3)OC(F)(F)O4)CC2)nc1-c1cccc(C(=O)O)c1 [LUMACAFTOR],> 30 µM,> 30 µM,> 30 µM,25 µM,> 30 µM,> 30 µM,> 30 µM,> 30 µM,
O=C(O)c1ccccc1OP(=O)(O)O [FOSFOSAL],> 30 µM,> 30 µM,> 30 µM,> 30 µM,> 30 µM,> 30 µM,> 30 µM,> 30 µM,
CC#CCn1c(N2CCC[C@@H](N)C2)nc2c1c(=O)n(Cc1nc(C)c3ccccc3n1)c(=O)n2C [LINAGLIPTIN],> 10 µM,> 10 µM,> 10 µM,,> 10 µM,> 30 µM,,> 30 µM,> 30 µM
COCCOC(=O)C1=C(C)NC(C)=C(C(=O)OC/C=C/c2ccccc2)C1c1cccc([N+](=O)[O-])c1 (configuration not stated) [CILNIDIPINE],> 30 µM,> 30 µM,> 30 µM,,> 30 µM,> 30 µM,> 30 µM,> 30 µM,21 µM
CO[C@@]1(NC(=O)Cc2cccs2)C(=O)N2C(C(=O)O)=C(COC(N)=O)CS[C@@H]21 [CEFOXITIN],> 30 µM,> 30 µM,> 30 µM,,> 30 µM,> 30 µM,> 30 µM,> 30 µM,
CC1(C)C(C=C(Cl)Cl)C1C(=O)OCc1cccc(Oc2ccccc2)c1 (configuration not stated) [PERMETHRIN],> 10 µM,> 10 µM,> 10 µM,,> 10 µM,> 10 µM,> 10 µM,> 10 µM,> 10 µM
CC1(C)C(/C=C/C=C/C=C/C=C2\N(CCCCS(=O)(=O)O)c3ccc4ccccc4c3C2(C)C)=[N+](CCCCS(=O)(=O)[O-])c2ccc3ccccc3c21 [INDOCYANINE GREEN ACID FORM],> 30 µM,13 µM,8.3 µM,,18 µM,19 µM,,> 30 µM,
CC[N+]1(C)CCCC(OC(=O)C(O)(c2ccccc2)c2ccccc2)C1 (configuration not stated) [PIPENZOLATE],> 30 µM,> 30 µM,27 µM,,> 30 µM,> 30 µM,0.023 µM,> 30 µM,> 30 µM
C=CC1=C(C(=O)O)N2C(=O)[C@@H](NC(=O)/C(=N\OCC(=O)O)c3csc(N)n3)[C@H]2SC1 [CEFIXIME],> 30 µM,,> 30 µM,> 30 µM,,> 30 µM,> 30 µM,> 30 µM,
C=C[C@@]1(C)CC(=O)[C@]2(O)[C@@]3(C)[C@@H](O)CCC(C)(C)[C@@H]3[C@H](OC(=O)CCN(C)C)[C@H](OC(C)=O)[C@@]2(C)O1,> 30 µM,> 30 µM,> 30 µM,,> 30 µM,> 30 µM,> 30 µM,> 30 µM,> 30 µM
NS(=O)(=O)c1cc2c(cc1C(F)(F)F)NC(Cc1ccccc1)NS2(=O)=O (configuration not stated) [BENDROFLUMETHIAZIDE],> 10 µM,> 10 µM,> 10 µM,,> 10 µM,> 10 µM,> 10 µM,> 10 µM,> 10 µM
O=C1CN=C(c2ccccc2)c2cc(Cl)ccc2N1 [NORDAZEPAM],> 10 µM,9.97 µM,> 10 µM,,0.049 µM,> 30 µM,> 10 µM,> 30 µM,> 30 µM
